According to patent publication US8435976B2, “4-substituted pyridin-3-yl-carboxamide compounds and methods of use” (F. Hoffmann-La Roche, priority 2009, dated 2013):
Read-outs that look alike come from different tables or passages of the source.

Assays:
[1] = test system: multiple myeloma cell line MM.1S; experiment: MM.1S 3 day proliferation assay, single agents and combinations (Cell-Titer Glo); type: cell-based; conditions: FIG. 1
Procedure: The in vitro potency of the combinations of formula I compounds with chemotherapeutic agents was measured by the cell proliferation assay of Example 11 and the results are compiled in Example iii. The CellTiter-Glo® Luminescent Cell Viability Assay (commercially available from Promega Corp., Madison, Wis.) is a homogeneous assay method based on the recombinant expression of Coleoptera luciferase (U.S. Pat. No. 5,583,024; U.S. Pat. No. 5,674,713; U.S. Pat. No. 5,700,670) and determines the number of viable cells in culture based on quantitation of the ATP present, an indicator of metabolically active cells (Crouch et al (1993) J. Immunol. Meth. 160:81-88; U.S. Pat. No. 6,602,677). The CellTiter-Glo® Assay was conducted in 96 or 384 well format, making it amenable to automated high-throughput screening (HTS) (Cree et al (1995) AntiCancer Drugs 6:398-404). The homogeneous assay procedure involves adding the single reagent (CellTiter-Glo® Reagent) directly to cells cultured in serum-supplemented medium. Cell washing, removal of medium and multiple pipetting steps are not required. The system detects as few as 15 cells/well in a 384-well format in 10 minutes after adding reagent and mixing.
The homogeneous “add-mix-measure” format results in cell lysis and generation of a luminescent signal proportional to the amount of ATP present. […] Viable cells are reflected in relative luminescence units (RLU). […] Data can be recorded by luminometer or CCD camera imaging device. The luminescence output is presented as relative light units (RLU), measured over time.
The combination index (CI) score is calculated by the Chou and Talalay method (Chou, T. and Talalay, P. (1984) Adv. Enzyme Regul. 22:27-55). […] The strength of synergy is assessed according to Chou and Talalay. […]
The in vitro cell survival and proliferation assay (Cell-Titer Glo, Promega) measured viable cells over varying inhibitor concentrations (10^−3 to 10 μMolar, Relative Units, wherein a Relative Unit equals 0.3 micromolar for Compound 3, 0.3 micromolar for Formula A, and 0.1 micromolar for Formula B). […]

[2] = test system: syngeneic A20 lymphoma tumors; experiment: Syngeneic A20 lymphoma tumor model; type: in vivo, Balb/c mice; conditions: Compound 3 25 and 50 mg/kg or Formula A 75 mg/kg po qd x21
Procedure: The efficacy of the combinations of the invention may be measured in vivo by implanting allografts or xenografts of cancer cells in rodents and treating the tumor-bearing animals with the combinations. […] Subject mice were treated with drug(s) or control (Vehicle) and monitored over several weeks or more to measure the time to tumor doubling, log cell kill, and tumor inhibition.
Dosing of all cohorts commenced on Day 0 when the mean tumor volume of all cohorts was between […]. […] At the conclusion of this study, femurs were collected and histological analysis of the bone marrow was conducted, and peripheral blood was collected for determination of blood cell counts.

[3] = test system: bone marrow aspirate samples from multiple myeloma patients; experiment: Primary cancer cell isolates from bone marrow aspirates, apoptosis; type: cell-based, human; conditions: 0.3 or 1.0 micromolar; two of four cases
Procedure: Shown in FIG. 2 are a summary of Combination Index values for Compound 3 in combination with different agents. The values shown were calculated at the ED50 of the dose response curves which were similar in nature to those exemplified in FIG. 1. Each dot in the plot represents the test results obtained with a different multiple myeloma cell line with a different combination of test agents, including Compound 3 plus a second agent as labeled on the abscissa. The horizontal line on the plot itself indicates the mean of all CI values for a given test agent. Combinations of Compound 3 with clinical standard of care chemotherapeutic agents including dexamethasone, lenalidomide, bortezomib, and melphalan produced variable results wherein CI values between about 0.1 and about 1 were obtained, with means generally greater than about 0.5. Compared to these clinically active agents, unexpectedly uniform and unexpectedly potent combination test results were obtained for Compound 3 in combination with Formula A, in which the majority of calculated CI values were less than about 0.2 and the mean across all cancer cell lines tested was about 0.2. In addition to these findings, bone marrow aspirate samples from multiple myeloma patients […] to test Formula A and Compound 3 singly and in combination on these primary cancer cell isolates.

BaF3 PIM1 cells = BaF3 PIM1 cells (Homo sapiens, UniProt P11309); experiment: BaF3 PIM1 cell proliferation (Cell Titer Glo); type: cell-based
BaF3 parental cells = experiment: BaF3 parental cell proliferation (Cell Titer Glo); type: cell-based; conditions: Mus musculus, Table 3
Procedure: BaF3 parental line was obtained from the DSMZ repository. BaF3 lines transfected with PIM1 or PIM2 were generated. Mouse IL-3 was purchased from R&D Systems. G418 was purchased from Clontech. Media for BaF3 parental line contained RPMI, 10% FBS, 2 mM L-Glutamine, 2 ng/mL mIL-3. Media for BaF3 PIM1 & 2 lines contained RPMI, 10% FBS, 2 mM L-Glutamine, […]. Media for MM1.S line contained RPMI, 10% FBS, 2 mM L-Glutamine.
BaF3 parental cells, BaF3 PIM1 cells, BaF3 PIM2 cells, and MM1.S cells were seeded at 2 k/well, 5 k/well, 5 k/well, and 10 k/well respectively, in a 384-well plate, at 45 μL/well. Test compound was added at 5 μL/well. BaF3 cells (parental and transfected) were incubated overnight, while MM1.S cells were incubated for 72 hours at 37° C., 5% CO2. Cell Titer Glo Reagent (Promega) was added at 50 μL/well, the plates were incubated for 30 minutes, and their luminescence read on an HT Analyst. IC50/EC50 values for the test compound were calculated.

BaF3 PIM1 cells, sequence (P11309 whole entry, change not shown): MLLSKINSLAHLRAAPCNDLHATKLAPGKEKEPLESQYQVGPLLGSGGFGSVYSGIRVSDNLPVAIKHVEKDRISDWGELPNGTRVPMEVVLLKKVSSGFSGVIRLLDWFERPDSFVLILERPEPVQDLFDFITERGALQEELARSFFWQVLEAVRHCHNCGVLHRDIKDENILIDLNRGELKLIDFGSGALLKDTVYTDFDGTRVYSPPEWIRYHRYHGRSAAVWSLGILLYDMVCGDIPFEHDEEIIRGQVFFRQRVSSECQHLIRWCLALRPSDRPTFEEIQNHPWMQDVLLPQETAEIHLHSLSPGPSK

Q: For `Nc1sc(-c2c(F)cccc2F)nc1C(=O)Nc1cnccc1N1CCC[C@H](N)C1` [Example 3, (S)-5-amino-N-(4-(3-aminopiperidin-1-yl)pyridin-3-yl)-2-(2,6-difluorophenyl)thiazole-4-carboxamide], which “lowest level reached by dose-response curve, of control value” [1] is on record?
A: does not fully reach 0% of the control value

Q: What about the “effect on tumor growth, single agents” value [2] of the same compound?
A: no significant effect on tumor growth

Q: And the “activity on primary cancer cell isolates” value [3]?
A: only limited single agent activity

Q: And the GI50 (BaF3 PIM1 cells; Table 3, read-out: BaF3-Pim1)?
A: 10 nM

Q: And the GI50 (BaF3 PIM1 cells; incubated overnight, read-out: Prolif BaF3_PIM1 (IC50))?
A: 13.5 nM

Q: And the IC50 (BaF3 parental cells)?
A: 8000 nM
